Measured values: US10526316B2, “Quinoxaline and pyridopyrazine derivatives as PI3Kβ inhibitors” (Janssen Pharmaceutica NV, priority 2015, dated 2020)
Read-outs that look alike come from different tables or passages of the source.

Key:
PI3Kβ = target: T1, PI3Kβ (Homo sapiens, UniProt P42338); assay: Enzyme binding assay (KINOMEscan, DiscoveRx); details: PIK3Cβ_h, read-out: Kd PIK3Cβ_h
T1 construct: purchased DiscoveRx Corporation, San Diego (contract service, KINOMEscan)
In short: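 KINOMEscan binding platform; read-out is the inhibitor binding constant Kd (nM).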

PI3Kδ = target: T2, PI3Kδ (Homo sapiens, UniProt O00329); assay: Enzyme binding assay (KINOMEscan, DiscoveRx); details: PIK3Cδ_h
T2 construct: purchased DiscoveRx Corporation, San Diego (contract service, KINOMEscan)
T2 sequence (O00329 1-1044): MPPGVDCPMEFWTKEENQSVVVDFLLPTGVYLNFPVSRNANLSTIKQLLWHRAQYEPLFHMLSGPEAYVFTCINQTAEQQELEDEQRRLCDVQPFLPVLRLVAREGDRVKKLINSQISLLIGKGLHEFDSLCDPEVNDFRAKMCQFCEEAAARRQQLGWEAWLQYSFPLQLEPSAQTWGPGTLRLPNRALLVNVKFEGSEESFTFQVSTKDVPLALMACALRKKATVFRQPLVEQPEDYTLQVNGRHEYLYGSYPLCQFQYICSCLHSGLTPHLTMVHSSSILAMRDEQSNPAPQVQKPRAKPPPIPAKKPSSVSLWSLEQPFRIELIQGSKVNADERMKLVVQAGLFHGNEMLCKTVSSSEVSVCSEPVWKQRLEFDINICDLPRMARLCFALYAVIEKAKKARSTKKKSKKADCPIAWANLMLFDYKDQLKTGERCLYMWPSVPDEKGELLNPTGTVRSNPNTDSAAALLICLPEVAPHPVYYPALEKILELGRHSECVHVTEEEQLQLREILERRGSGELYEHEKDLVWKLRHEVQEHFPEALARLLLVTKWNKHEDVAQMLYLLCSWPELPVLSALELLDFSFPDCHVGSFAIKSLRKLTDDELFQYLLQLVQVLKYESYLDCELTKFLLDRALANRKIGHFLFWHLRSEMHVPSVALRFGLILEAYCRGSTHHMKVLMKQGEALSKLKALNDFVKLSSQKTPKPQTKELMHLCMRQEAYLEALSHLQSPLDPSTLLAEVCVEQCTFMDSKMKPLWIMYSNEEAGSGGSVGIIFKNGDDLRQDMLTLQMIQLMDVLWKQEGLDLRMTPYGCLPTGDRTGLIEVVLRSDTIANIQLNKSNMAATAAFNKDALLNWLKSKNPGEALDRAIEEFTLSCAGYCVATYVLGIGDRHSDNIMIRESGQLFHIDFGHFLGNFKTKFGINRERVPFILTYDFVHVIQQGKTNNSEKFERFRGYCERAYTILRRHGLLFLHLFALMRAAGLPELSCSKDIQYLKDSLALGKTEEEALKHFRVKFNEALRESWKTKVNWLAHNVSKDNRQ
In short: (§1)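 KINOMEscan readout; values are kinase binding affinities.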

kinase enzymes [1] = target: T3, kinase enzymes (Homo sapiens, UniProt P42336); assay: Enzyme binding assay (KINOMEscan, DiscoveRx), further kinases of Table A; details: PIK3Cα_h
T3 construct: purchased DiscoveRx Corporation, San Diego (contract service, KINOMEscan)
T3 sequence (P42336 whole entry): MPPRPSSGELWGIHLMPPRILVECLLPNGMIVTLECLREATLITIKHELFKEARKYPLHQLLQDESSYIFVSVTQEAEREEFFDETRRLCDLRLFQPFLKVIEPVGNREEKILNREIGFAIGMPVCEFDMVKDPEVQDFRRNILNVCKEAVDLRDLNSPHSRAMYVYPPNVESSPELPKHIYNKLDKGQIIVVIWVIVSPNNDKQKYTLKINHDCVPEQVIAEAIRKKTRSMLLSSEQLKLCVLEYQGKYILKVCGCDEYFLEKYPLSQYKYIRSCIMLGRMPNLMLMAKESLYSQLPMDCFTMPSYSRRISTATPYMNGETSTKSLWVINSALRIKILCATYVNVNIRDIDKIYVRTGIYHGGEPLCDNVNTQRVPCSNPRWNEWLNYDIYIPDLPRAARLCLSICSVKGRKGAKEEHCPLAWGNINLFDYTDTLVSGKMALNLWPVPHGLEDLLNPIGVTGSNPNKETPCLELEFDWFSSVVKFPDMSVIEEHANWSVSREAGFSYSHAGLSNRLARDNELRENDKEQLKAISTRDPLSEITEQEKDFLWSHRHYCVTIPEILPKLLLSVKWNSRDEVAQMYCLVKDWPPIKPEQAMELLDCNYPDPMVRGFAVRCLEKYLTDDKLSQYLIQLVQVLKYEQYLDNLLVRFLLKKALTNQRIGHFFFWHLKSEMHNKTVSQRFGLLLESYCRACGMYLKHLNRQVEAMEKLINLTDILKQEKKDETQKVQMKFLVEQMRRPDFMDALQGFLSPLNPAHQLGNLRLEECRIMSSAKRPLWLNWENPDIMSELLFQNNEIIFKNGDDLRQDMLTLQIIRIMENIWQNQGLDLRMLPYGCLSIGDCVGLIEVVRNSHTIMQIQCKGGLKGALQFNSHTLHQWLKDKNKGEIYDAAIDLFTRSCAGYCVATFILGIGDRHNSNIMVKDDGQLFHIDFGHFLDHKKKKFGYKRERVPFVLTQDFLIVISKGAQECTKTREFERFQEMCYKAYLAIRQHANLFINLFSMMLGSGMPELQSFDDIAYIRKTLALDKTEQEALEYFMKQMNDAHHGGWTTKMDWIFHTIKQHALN
In short: as §1

kinase enzymes [2] = target: T4, kinase enzymes (Homo sapiens, UniProt P42345); assay: as above; details: MTOR_h
T4 construct: purchased DiscoveRx Corporation, San Diego (contract service, KINOMEscan)
In short: as §1

kinase enzymes [3] = target: T5, kinase enzymes (Homo sapiens, UniProt P48736); assay: as above; details: PIK3Cγ_h
T5 construct: purchased DiscoveRx Corporation, San Diego (contract service, KINOMEscan)
T5 sequence (P48736 whole entry): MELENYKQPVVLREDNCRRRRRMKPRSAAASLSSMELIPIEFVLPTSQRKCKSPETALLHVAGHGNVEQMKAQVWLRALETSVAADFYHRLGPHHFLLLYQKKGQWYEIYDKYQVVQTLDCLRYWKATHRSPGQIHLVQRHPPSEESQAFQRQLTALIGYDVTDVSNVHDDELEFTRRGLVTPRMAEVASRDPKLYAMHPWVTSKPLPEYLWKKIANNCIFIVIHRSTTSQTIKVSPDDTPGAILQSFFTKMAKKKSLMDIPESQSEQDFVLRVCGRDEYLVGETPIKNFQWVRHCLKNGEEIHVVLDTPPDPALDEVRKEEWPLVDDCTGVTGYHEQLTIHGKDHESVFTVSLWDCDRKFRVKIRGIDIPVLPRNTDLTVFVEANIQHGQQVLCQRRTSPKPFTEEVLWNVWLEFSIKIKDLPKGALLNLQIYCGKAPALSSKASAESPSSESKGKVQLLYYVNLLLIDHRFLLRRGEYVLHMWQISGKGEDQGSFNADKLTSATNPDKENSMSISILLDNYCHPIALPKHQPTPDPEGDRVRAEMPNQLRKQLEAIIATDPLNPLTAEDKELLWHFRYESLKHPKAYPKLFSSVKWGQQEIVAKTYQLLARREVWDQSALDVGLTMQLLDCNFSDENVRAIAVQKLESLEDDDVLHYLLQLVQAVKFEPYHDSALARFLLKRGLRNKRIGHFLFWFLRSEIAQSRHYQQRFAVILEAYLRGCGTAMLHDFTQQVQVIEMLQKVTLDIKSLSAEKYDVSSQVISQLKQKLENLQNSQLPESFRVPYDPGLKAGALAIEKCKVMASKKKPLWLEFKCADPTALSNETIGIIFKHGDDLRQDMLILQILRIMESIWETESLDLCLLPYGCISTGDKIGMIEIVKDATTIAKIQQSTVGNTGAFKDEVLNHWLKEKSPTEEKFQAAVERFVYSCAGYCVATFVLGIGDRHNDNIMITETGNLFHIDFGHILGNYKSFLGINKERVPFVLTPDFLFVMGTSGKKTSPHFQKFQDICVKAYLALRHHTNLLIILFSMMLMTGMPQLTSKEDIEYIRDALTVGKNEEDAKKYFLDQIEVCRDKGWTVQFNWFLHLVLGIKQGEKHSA
In short: as §1

[4] = tested on: Akt phosphorylated at Ser473 in PC-3 cells; assay: Cellular assay: phosphorylation of Akt at Ser473 in PC-3 cells (MSD ELISA); assay type: cell-based; details: PC-3 cells, 60 min compound incubation, MSD ELISA, read-out: IC50 pAkt_S473
In short: (§2)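 Electrochemiluminescent sandwich ELISA read-out: phospho-specific capture (Ser473 or Thr308), Sulfo-tag anti-total Akt detection, signal proportional to phospho-Akt. Cells treated 60 min at 37° C with compound, DMSO 0.3%. IC50 fitted from five concentrations.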

[5] = tested on: Akt phosphorylated at Thr308 in PC-3 cells; assay: Cellular assay: phosphorylation of Akt at Thr308 in PC-3 cells (MSD ELISA); assay type: cell-based; details: PC-3 cells, 60 min compound incubation, MSD ELISA, read-out: IC50 pAkt_Thr308
In short: as §2

T1 sequence (P42338 whole entry): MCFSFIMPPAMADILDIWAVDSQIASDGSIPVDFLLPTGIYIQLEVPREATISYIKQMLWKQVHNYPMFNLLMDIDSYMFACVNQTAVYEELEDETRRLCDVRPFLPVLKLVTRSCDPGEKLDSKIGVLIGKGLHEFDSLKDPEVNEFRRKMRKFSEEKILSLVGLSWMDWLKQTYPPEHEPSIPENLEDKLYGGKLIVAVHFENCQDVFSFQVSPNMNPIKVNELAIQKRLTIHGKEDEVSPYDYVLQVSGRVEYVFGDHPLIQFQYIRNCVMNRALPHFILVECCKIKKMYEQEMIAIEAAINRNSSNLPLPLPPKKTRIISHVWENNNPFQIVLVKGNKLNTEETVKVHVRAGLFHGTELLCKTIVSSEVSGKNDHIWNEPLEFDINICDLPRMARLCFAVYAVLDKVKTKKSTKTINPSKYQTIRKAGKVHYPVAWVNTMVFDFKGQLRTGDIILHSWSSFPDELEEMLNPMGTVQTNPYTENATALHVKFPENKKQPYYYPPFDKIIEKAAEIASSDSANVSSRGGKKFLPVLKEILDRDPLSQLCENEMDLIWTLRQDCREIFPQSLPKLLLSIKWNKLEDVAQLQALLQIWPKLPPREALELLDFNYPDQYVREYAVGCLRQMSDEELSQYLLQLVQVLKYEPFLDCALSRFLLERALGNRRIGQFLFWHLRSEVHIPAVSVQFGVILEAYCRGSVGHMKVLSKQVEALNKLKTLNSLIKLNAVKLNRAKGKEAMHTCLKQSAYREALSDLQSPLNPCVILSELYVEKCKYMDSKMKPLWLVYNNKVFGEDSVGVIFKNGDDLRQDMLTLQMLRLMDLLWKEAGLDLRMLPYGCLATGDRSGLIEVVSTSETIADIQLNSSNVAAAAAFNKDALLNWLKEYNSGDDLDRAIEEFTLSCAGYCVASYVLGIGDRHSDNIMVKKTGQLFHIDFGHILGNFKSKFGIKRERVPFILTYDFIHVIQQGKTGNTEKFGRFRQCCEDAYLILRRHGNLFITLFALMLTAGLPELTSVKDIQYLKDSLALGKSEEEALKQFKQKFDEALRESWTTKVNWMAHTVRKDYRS

| SMILES | Kd (PI3Kβ) [nM] | Kd (PI3Kδ) [nM] | Kd (kinase enzymes [1]) [nM] | Kd (kinase enzymes [2]) [nM] | Kd (kinase enzymes [3]) [nM] | IC50 [4] [nM] | IC50 [5] [nM] | melting point [°C] | IC50 ([4]; Homo sapiens, PC-3, 1 h) [nM] | IC50 ([5]; Homo sapiens, PC-3, 1 h) [nM] |
| --- | --- | --- | --- | --- | --- | --- | --- | --- | --- | --- |
| CC(Nc1cc(F)cc(F)c1)c1cc(CN2CC3(C2)CS(=O)(=O)C3)cc2ncc(N3CCOCC3)nc12 (single isomer, unassigned) [Compound 161] | 776 | > 30200 | > 30200 | > 30200 | > 30200 | > 513 | > 513 | 228 |  |  |
| O=C(c1cc(C2CCCN2c2cc(F)cc(F)c2)c2nc(N3CCOCC3)cnc2c1)N1CCS(=O)(=O)CC1 (single isomer, unassigned) [Compound 43] | 316 | 7240 | 4680 | > 30200 | 1100 | > 513 | 331 | 80 |  |  |
| CC(Nc1cccc(Br)c1)c1cc(C(=O)N2CCOCC2)cc2ncc(N3CCOCC3)nc12 (stereo not drawn) [Compound 124] | 4 | 575 | 1070 | 8130 | 7760 |  |  | 80 | 151 | 93 |
| NCc1cc(C2CCCN2c2cc(F)cc(F)c2)c2nc(N3CCOCC3)cnc2c1 (stereo not drawn) [Compound 96] | 0.4 | 83 | 363 | 17400 | 302 |  |  | 80 | 25 | 20 |
| Cc1c(F)cccc1CNc1cc(C(=O)NCCN(C)C)cc2ncc(N3CCOCC3)nc12 [Compound 383] | 1 | 234 | 1230 | 7080 | 7940 |  |  | 172 | 23 | 6 |
| CC(Nc1cc(F)cc(F)c1)c1cc(CO)cc2ncc(N3CCOCC3)nc12 (single isomer, unassigned) [Compound 154b] | 490 | 14800 | 20900 | 25100 | 7760 | > 513 | > 513 | 90 |  |  |
| CNCCNC(=O)c1cc(C(C)Oc2cc(F)cc(F)c2)c2nc(N3CCOCC3)cnc2c1 (single isomer, unassigned) [Compound 165] | 0.3 | 182 | 1780 | 14100 | 5490 | 45 | 11 | 80 |  |  |
| Cc1c(F)cccc1CNc1cc(C(=O)NCCO)cc2ncc(N3CCOCC3)nc12 [Compound 336] | 4 | 871 | 1950 | 11000 | 9120 |  |  | 194 | 85 | 46 |
| CC(Nc1cc(F)c(F)c(F)c1)c1cc(C(=O)NCC(C)(C)O)cc2ncc(N3CCOCC3)nc12 (stereo not drawn) [Compound 292] | 16 | 1700 | 6610 | > 30200 | 27500 |  |  | 80 | 437 | 234 |

Results, then the molecule that gave them:

| Kd (PI3Kβ) [nM] | Kd (PI3Kδ) [nM] | Kd (kinase enzymes [1]) [nM] | Kd (kinase enzymes [2]) [nM] | Kd (kinase enzymes [3]) [nM] | IC50 [4] [nM] | IC50 [5] [nM] | melting point [°C] | IC50 ([4]; Homo sapiens, PC-3, 1 h) [nM] | IC50 ([5]; Homo sapiens, PC-3, 1 h) [nM] | SMILES |
| --- | --- | --- | --- | --- | --- | --- | --- | --- | --- | --- |
| 7 | 513 | 2190 | 21400 | 5620 |  | 41 | 80 | 58 |  | CC(Nc1ccc(F)c(F)c1)c1cc(C(=O)NCCO)cc2ncc(N3CCOCC3)nc12 (single isomer, unassigned) [Compound 279a] |
| 1 | 182 | 3800 | > 30200 | 3090 | 209 | 100 | 130 |  |  | CC(Nc1ccc(F)c(F)c1)c1cc(C(=O)N(C)C2CCNC2)cc2ncc(N3CCOCC3)nc12 (stereo not drawn) [Compound 323b] |
| 10 | 939 | 2080 | 19100 | 8140 | 90 | 61 | 113 |  |  | CC(Nc1cc(F)c(F)c(F)c1)c1cc(C(=O)NC[C@@H](C)O)cc2ncc(N3CCOCC3)nc12 (single isomer, unassigned) [Compound 284a] |
